Measured values from ChEMBL document CHEMBL1158212, “Squamotacin: an annonaceous acetogenin with cytotoxic selectivity for the human prostate tumor cell line (PC-3)” (J Nat Prod, 1996).
≈ marks a conversion by molar mass, not a printed value.

Legend:
A498 = assay: Cytotoxicity against human A498 cells; format: functional; conditions: for EC50: Homo sapiens, A498, read-out: ED50 (the source's name)
MCF7 = assay: Cytotoxicity against human MCF7 cells; format: functional; conditions: read-out: ED50 (the source's name)
A549 = assay: Cytotoxicity against human A549 cells; format: functional; conditions: for EC50: Homo sapiens, A549, read-out: ED50 (the source's name)
HT-29 = assay: Cytotoxicity against human HT29 cells; format: functional; conditions: read-out: ED50 (the source's name)
[1] = Cytotoxicity against human PC3 cells; format: cell-based, PC-3; conditions: read-out: ED50 (the source's name)
[2] = (§1) Toxicity in Artemia salina; format: organism-based; conditions: in vivo
MIA PaCa-2 = assay: Cytotoxicity against human MIAPaCa2 cells; format: functional; conditions: for EC50: Homo sapiens, MIA PaCa-2, read-out: ED50 (the source's name)
Artemia salina = assay: as §1; format: organism-based; conditions: in vivo

| SMILES | ED50 (A498) | EC50 (MCF7) | ED50 (A549) | EC50 (HT-29) | CC50 [1] | LC50 [2] | EC50 (A498) | EC50 (MIA PaCa-2) | EC50 (A549) | LC50 (Artemia salina) | ED50 (MIA PaCa-2) |
| --- | --- | --- | --- | --- | --- | --- | --- | --- | --- | --- | --- |
| CCCCCCCCCC[C@@H](O)[C@@H]1CC[C@@H]([C@@H]2CC[C@@H]([C@H](O)CCCCCCCCCC(O)CC3=CC(C)OC3=O)O2)O1 (stereo not given in full) [BULLATACIN] | 4.85 ×10⁻⁵ ug/ml | 696 ng/mL (≈ 1140 nM) | 2.44 ×10⁻⁶ ug/ml | > 1000 ng/mL |  |  |  |  |  |  |  |
| CCCCCCCCCC[C@H](O)[C@H]1CC[C@H]([C@H]2CC[C@H]([C@H](O)CCCCCCCCCC[C@@H](O)CC3=C[C@H](C)OC3=O)O2)O1 [BULLATACIN] |  |  |  |  | 1e-06 ng/mL (≈ 1.61e-06 nM) | 1.59 ng/mL (≈ 2.55 nM) |  |  |  |  |  |
| COc1cccc2c1C(=O)c1c(O)c3c(c(O)c1C2=O)C[C@@](O)(C(=O)CO)C[C@@H]3O[C@H]1C[C@H](N)[C@H](O)[C@H](C)O1 [DOXORUBICIN] |  | 347 ng/mL (≈ 638 nM) |  | 41.6 ng/mL (≈ 76.5 nM) | 342 ng/mL (≈ 629 nM) | 257 ng/mL (≈ 473 nM) | 24.9 ng/mL (≈ 45.8 nM) | 3.17 ng/mL (≈ 5.83 nM) | 28.4 ng/mL (≈ 52.3 nM) |  |  |
| CCCCCCCCCC[C@H](O)[C@H]1CC[C@H]([C@H]2CC[C@H]([C@H](O)CCCCCCCC[C@@H](O)CC3=C[C@H](C)OC3=O)O2)O1 [MOLVIZARIN] |  | > 1000 ng/mL |  | 7.32 ng/mL (≈ 12.3 nM) |  |  | 709 ng/mL (≈ 1190 nM) | 7.66 ng/mL (≈ 12.9 nM) | 63 ng/mL (≈ 106 nM) | 5.26 ×10⁻² ug/ml |  |
| CCCCCCCCCCCC[C@H](O)[C@H]1CC[C@H]([C@H]2CC[C@H]([C@H](O)CCCCCCCC[C@@H](O)CC3=C[C@H](C)OC3=O)O2)O1 [SQUAMOTACIN] |  | > 1000 ng/mL |  | 1 ng/mL (≈ 1.61 nM) |  | 6.8 ng/mL (≈ 10.9 nM) | > 1000 ng/mL |  | 27.7 ng/mL (≈ 44.5 nM) |  | 1.33 ×10⁻⁴ ug/ml |
